# Measurements from patent US9018176B2, “Inducers of hematopoiesis and fetal globin production for treatment of cytopenias and hemoglobin disorders” (priority 2010, dated 2015).
# Values joined by “and” are separate entries in the source; they are usually repeats but may differ in a detail not shown here. Equal values may be shown once. “Also recorded” adds a separate entry of the source.
# Legend:
# cell viability = details: cited from earlier work; for DNA fragmentation: fragmentation assays
# γ-globin mRNA [1] = assay: γ-globin mRNA in cultured primary human erythroid progenitors (BFU-e), real-time PCR; format: cell-based
# γ-globin mRNA [2] = assay: as above; format: cell-based; details: for γ-globin mRNA induction: cultured primary human erythroid progenitors, concentrations pharmacologically achievable in humans; for % induction of γ-globin mRNA gene expression: FIG. 4C, HFU-E (burst-forming units-erythroid) cells, Resveratrol 30 μM, desloratadine 50 μM, NSC 50 μM, Benserazine 5 μM; for effect in increasing % of γ-globin mRNA expression: FIG. 6, BFU-e cells, Desloratadine 3 μM, Benserazide 3 μM, NSC5397 0.6 μM
# Experimental: Erythroid progenitors were cultured from cord blood CD34+ cells. […] Each compound was tested in three different cultures. […] On day 14, RNA was extracted from cultured erythroid cells, and relative quantification PCR was performed. Briefly, cDNA was generated from equal amounts of total RNA extracted using The PerfectPure RNA Purification Kit (5 Prime Inc Gaithersburg, Md.). Real-time PCR was performed using an ABI 7500 Real-Time PCR system (Applied Biosystems, Foster City, Calif.). Levels of globin mRNA were calculated by the ΔΔCt method. […] GAPDH levels were used for standardization. Western blotting Nuclear extract of K562 cells and 14-day-old BFU-e were analyzed by electrophoresis using 5-24% gradient SDS-polyacrylamide mini-gels (BIORAD Laboratories. Hercules Calif.). Proteins in the gels were transferred to Immobilon-P membranes. Blots were then incubated with BCL11A polyclonal (Novus Biologicals, Littleton Co) or mouse monoclonal (Santa Cruz Biotechnology, Santa Cruz Calif.) antibodies, after washing blots were incubated with anti-rabbit IgG-horseradish peroxidase secondary antibody (ECL, Little Chalfont Buckinghamshire UK). BCL11A bands were detected on the X-ray film using Western Lightning Reagents (Perking Elmer Inc, Waltham, Mass.).
# γ-globin gene promoter = assay: Dual luciferase reporter assay (μLCRβprRlucAγprFluc cassette) in GM979 cells; format: cell-based; details: Resveratrol at 10 μM, MS-275 at 5 μM; for activity compared with sodium Butyrate: Ambroxol at 1 μM, Desloratadine at 1 μM, Benserazide at 0.03 μM (or a range of 30 nM-5 μM), NSC-95397 at 1 μM, versus sodium Butyrate at 2000 μM; for most active at inducing γ-globin mRNA expression: Benserazide at 0.03 μM
# Excerpt: Cell-based screen for γ-globin inducing compounds in GM979 cells (Skarpidi, et al. Blood 2000; 96:321-326). Mini-gene construct integrated into GM979 cell genome. The readout is Firefly/Renilla luciferase ratio, and is designed to identify only strong inducers of the γ-globin promoter, and specificity for the γ- vs. the […]γ-globin gene. This second assay confirmed 12/15 candidates.
# This assay is […], and consists of a dual-luciferase reporter construct containing the LCR and the […] luciferase and the Aγ-globin promoter linked to firefly luciferase (μLCRβprRlucAγprFluc cassette), stably-transfected into GM979 cells. The orientation of the promoters and μLCR allowed detection only of strong, specific inducers of the γ-globin gene promoter. This assay is also been predictive of in vivo HbF-inducing activity.
# The γ-globin-specificity of hits was determined in a secondary assay employing a stably-transfected dual-luciferase reporter construct containing the LCR and the β-globin promoter linked to renilla luciferase and the Aγ-globin promoter linked to firefly luciferase (μLCRβprRlucAγprFluc cassette) (FIG. 2B).
# [3] = system: system A transport of amino acids; details: cited from earlier work
# γ-globin = assay: Fetal globin (γ-globin mRNA, HbF) induction in phlebotomized anemic baboons; format: in vivo, baboons (Papio hamadryas anubis); details: for fetal globin mRNA: Benserazide 1 or 3 mg/kg in baboon 1509, MS-275 and desloratidine
# Experimental: (§1) Studies to evaluate pharmacokinetic properties and γ-globin induction were performed in juvenile baboons (Papio hamadryas anubis). Briefly, animals were chronically phlebotomized on a daily basis to achieve stable anemia, maintaining a total hemoglobin level of 7.0 to 7.5 g/dl. Candidate compounds were administered intravenously or orally once daily in single doses for pharmacokinetic studies, or once daily in single doses, 4-5 days per week for 4-5 weeks, for pharmacodynamic studies. […] Levels of γ-globin mRNA expression and globin chain synthesis were assessed in baboons before and during treatment with test compounds. A washout period between administrations of different compounds in the same baboon was provided.
# (§2) Chronically catheterized baboons were phlebotomized daily to create chronic anemia with total hemoglobin levels (Hb) between 7.0 to 7.5 g/dl which simulates the expanded erythropoiesis and anemia in sickle cell disease and beta thalassemia. Blood counts were drawn and total Hb (hemoglobin) and reticulocytes were analyzed on a hemavet analyzer. Fetal globin mRNA was analyzed by RT-PCR and proportions for f-cells were analyzed by flow cytometry. […] Desloratidine (0.6 mg/kg) was administered for 4 days following a washout period. Blood counts were obtained at least 3 days/week.
# Baboons HL-25 and HD50 were phlebotomized daily to create anemia with erythroid expansion. When stably anemic, Desloratidine (0.6 mg/kg) was administered orally, fetal hemoglobin (HbF) protein levels were assayed.
# γ-globin mRNA [4] = assay: γ-globin mRNA gene expression in K562 cells; format: cell-based; details: for % induction of γ-globin mRNA gene expression: FIGS. 4A and 4B, Resveratrol 30 μM, desloratadine 50 μM, NSC 50 μM, Benserazine 5 μM
# [5] = system: red blood cell production; assay: Total hemoglobin and hematocrit in phlebotomized anemic baboons; format: in vivo, baboons (Papio hamadryas anubis); details: for total hemoglobin levels: MS-275 as
# Experimental: as §1, §2
# Baboon 1509 (weight 10.9 kg) was phlebotomized to induce anemia and marrow expansion, similar to the hemoglobin disorders.
# CB BFU-E cells = assay: CB BFU-E cell proliferation (cells/colony)
# Experimental: Fetal globin-inducing activity in human erythroid progenitors was assessed. Human erythroid progenitors were cultured from peripheral blood samples, exposed to the test compounds at varying concentrations and for varying durations and analyzed for globin chain mRNA ratios. Erythroid progenitors were cultured from cord blood CD34+ cells. Briefly, CD34+ cells in the human cord blood were separated using a Ficoll-paque density gradient. CD34+ cells were cultured in H4230 medium containing 2 mM L-glutamine, 1% Methylcellulose in Iscove's Medium, 30% Fetal Bovine Serum, 1% Bovine Serum Albumin and 10^-4 M β-mercaptoethanol. Methylcellulose H4230 medium was supplemented with EPO (0.5 U/ml) and IL-3 (20 ng/ml) to support BFU-e growth. Cells were cultured in […] mini-dishes and incubated in a humidified atmosphere containing 5% CO2, at 37° C. Different concentrations of the test compounds were added at the time the cultures were established. Each compound was tested in three different cultures. BFU-e colonies grown in mini-dishes were counted on day 14 and harvested for mRNA analysis.
# [6] = Ambroxol 0.1-1 uM, Cord Blood progenitors
# [7] = Ambroxol 0.1-1 uM, Normal progenitors
# [8] = MS275 0.5 uM, Cord Blood progenitors
# [9] = MS275 0.5 uM, Normal progenitors
# [10] = Benserazide 1 or 3 mg/kg in baboon 1509
# [11] = Benserazide 0.1-0.3 uM, Cord Blood progenitors
# [12] = Benserazide 0.1-0.3 uM, Hemoglobin disorder progenitors
# [13] = Benserazide 0.1-0.3 uM, Normal progenitors
structure (smiles),measurement,setting,value
CCCC(=O)OCC [butyric acid ethyl ester],DNA fragmentation,cell viability,reduce DNA fragmentation
"Nc1c(Br)cc(Br)cc1CN[C@H]1CC[C@H](O)CC1 [Ambroxol, ambroxol]","fetal globin mRNA, Means",γ-globin mRNA [1]; [6],243 % of control
same,responses (cultures with induced fetal globin mRNA),γ-globin mRNA [1]; [6],3/4
same,"fetal globin mRNA, Means",γ-globin mRNA [1]; [7],224 % of control
same,responses (cultures with induced fetal globin mRNA),γ-globin mRNA [1]; [7],1/1
same,"fetal globin mRNA, single cultures",γ-globin mRNA [2]; [6],302 % of control and 233 % of control and 193 % of control
same,γ-globin mRNA induction,γ-globin mRNA [2],3 fold
same,activity compared with sodium Butyrate,γ-globin gene promoter,significantly more active
CC(=Cc1ccccc1)C(=O)O [α-methyl cinnamic acid],system A transport of amino acids,[3],do not significantly alter
"Nc1ccccc1NC(=O)c1ccc(CNC(=O)OCc2cccnc2)cc1 [MS-275, N-(2-aminophenyl)-4-[N-(pyridin-3-yl-methoxycarbonyl)aminomethyl]benzamide]","fetal globin mRNA, Mean",γ-globin mRNA [1]; [8],345 % of control
same,responses (cultures with induced fetal globin mRNA),γ-globin mRNA [1]; [8],2/2
same,"fetal globin mRNA, Mean",γ-globin mRNA [1]; [9],394 % of control
same,responses (cultures with induced fetal globin mRNA),γ-globin mRNA [1]; [9],5/6
same,"fetal globin mRNA, single subjects","γ-globin mRNA [1]; MS275 0.5 uM, Normal progenitors (MB, MB, JS, ABM, ABM)",680 % of control and 534 % of control and 168 % of control and 463 % of control and 126 % of control
same,γ-globin induction compared with arginine butyrate,"γ-globin mRNA [2]; FIG. 13, MS-275 0.5 μM vs arginine butyrate 100 μM, progenitors from human sources with low or high basal HbF",higher activity; also recorded: greater
same,γ-globin mRNA induction,γ-globin mRNA [2],up to 3.7 fold
same,activity compared with sodium Butyrate,γ-globin gene promoter,significantly more active
same,most active at inducing γ-globin mRNA expression,γ-globin gene promoter,most active
same,Increase in γ-globin mRNA above baseline,"γ-globin; Baboon HD50, MS-275 oral 0.18 mg/kg, 0.18 mg/kg",270%
same,fetal globin mRNA,γ-globin,induced
same,γ-globin mRNA expression in blood compared with positive control ST20 (150 mg/kg),"γ-globin; FIG. 12A, MS-275 3 mg/m^2 for 4 days and 2 weeks, desloratadine 0.6 mg/kg for two days vs ST20 after 2 or 4 days",to the same level
same,"γ-globin induction, dependence on dose","γ-globin mRNA [4]; FIG. 10B, K562 cells",dose-dependent
same,total hemoglobin levels,[5]; [10],increased
same,blood total hemoglobin (Hb) levels compared with positive control ST20 (150 mg/kg),"[5]; FIG. 12B, MS-275 3 mg/m^2 for 4 days and 2 weeks vs ST20 2 and 4 days, desloratadine 0.6 mg/kg for two days",to a greater extent
O=C1C(SCCO)=C(SCCO)C(=O)c2ccccc21 [NSC-95397],% induction of γ-globin mRNA gene expression,γ-globin mRNA [2],most significant % increase
same,effect in increasing % of γ-globin mRNA expression,γ-globin mRNA [2],greatest effect
same,activity compared with sodium Butyrate,γ-globin gene promoter,significantly more active
same,concentration giving the most γ-globin mRNA expression,"γ-globin mRNA [4]; FIG. 5, K562 cells, tested Desloratadine 10 μM-100 μM, Resveratrol 5 μM-30 μM, NSC 1 μM-50 μM",50 µM
same,% induction of γ-globin mRNA gene expression,γ-globin mRNA [4]; K562 cells,most significant % increase
CC(C)C(N)=O [isobutyramide],cell viability,cell viability; DNA fragmentation assays,decrease cell viability
O=C(O)COc1ccccc1 [phenoxyacetic acid],system A transport of amino acids,[3],do not significantly alter
same,DNA fragmentation,cell viability,reduce DNA fragmentation
"NC(CO)C(=O)NNCc1ccc(O)c(O)c1O (stereo not shown) [Benserazide, 2-amino-3-hydroxy-N′-(2,3,4-trihydroxybenzyl)propanehydrazide]","fetal globin mRNA, Mean",γ-globin mRNA [1]; [11],300 % of control
same,"fetal globin mRNA, Mean",γ-globin mRNA [1]; [12],212 % of control
same,responses (cultures with induced fetal globin mRNA),γ-globin mRNA [1]; [12],4/4
same,"fetal globin mRNA, single subjects","γ-globin mRNA [1]; Benserazide 0.1-0.3 uM, Hemoglobin disorder progenitors (subjects)",178 % of control and 143 % of control and 282 % of control and 128 % of control and 277.3 % of control
same,"fetal globin mRNA, Mean",γ-globin mRNA [1]; [13],151 % of control
same,responses (cultures with induced fetal globin mRNA),γ-globin mRNA [1]; [13],3/4
same,"fetal globin mRNA, single subjects","γ-globin mRNA [1]; Benserazide 0.1-0.3 uM, Normal progenitors (MB, JS, ABM)",115 % of control and 223 % of control and 114 % of control
same,responses (cultures with induced fetal globin mRNA),γ-globin mRNA [2]; [11],4/5
same,% induction of γ-globin mRNA gene expression,γ-globin mRNA [2],most significant % increase
same,effect in increasing % of γ-globin mRNA expression,γ-globin mRNA [2],greatest effect
same,γ-globin mRNA induction,γ-globin mRNA [2],up to 5 fold
same,concentrations that induce fetal globin (HbF) mRNA,γ-globin mRNA [2]; primary erythroid progenitors in vitro,0.3 to 5.0 µM
same,activity compared with sodium Butyrate,γ-globin gene promoter,significantly more active
same,most active at inducing γ-globin mRNA expression,γ-globin gene promoter,most active
same,Increase in γ-globin mRNA above baseline,"γ-globin; Baboon 1509, Benserazide oral 2 mg/kg",193%
same,fetal globin mRNA,γ-globin,increased
same,number of blood cells per colony,CB BFU-E cells; FIG. 8,increase the number of blood cells per colony
same,% induction of γ-globin mRNA gene expression,γ-globin mRNA [4]; K562 cells,most significant % increase
same,hemoglobin level after treatment,"[5]; Baboon 1509, Benserazide 1 mg/kg then 2 mg/kg, by 2 weeks after administration, daily phlebotomy continued, before 7.6 g/dl",8.9 g/dL
same,hematocrit after treatment,"[5]; Baboon 1509, Benserazide 1 mg/kg then 2 mg/kg, by 2 weeks after administration, daily phlebotomy continued, before 25.6%",28%
same,blood cell proliferation,[5]; [10],increased blood cell proliferation
same,total hemoglobin levels,[5]; [10],increased
"CCCC(=O)O [Butyrate, butyrate]",concentration required,"CB BFU-E cells; FIG. 8, comparator for the 3 drug candidates",200 µM
